Experiments:
[1] = system: morningglory; assay: Test B pre/postemergence morningglory; type: in vivo, Ipomoea hederacea; settings: for Morningglory plant response rating: scale of 0 to 10 where 0 is no effect and 10 is complete control
Method in brief: (§1)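 Herbicidal effect was estimated by eye on a ten-point control scale after plants spent twelve to sixteen days in a greenhouse following soil or foliar treatment. Foliar sprays targeted plants at one to four leaves; all doses were formulated in a non-phytotoxic solvent with surfactant.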

[2] = system: giant foxtail; assay: Test B pre/postemergence giant foxtail; type: in vivo, Setaria faberii; settings: for Giant foxtail plant response rating: scale of 0 to 10 where 0 is no effect and 10 is complete control
Method in brief: as §1

[3] = system: common ragweed; assay: Test D common ragweed; type: in vivo, Ambrosia elatior
[4] = system: cocklebur; assay: Test B pre/postemergence cocklebur; type: in vivo, Xanthium strumarium; settings: for Cocklebur plant response rating: scale of 0 to 10 where 0 is no effect and 10 is complete control
Method in brief: as §1

[5] = system: bamyardgrass; assay: Test B flood test barnyardgrass; type: in vivo, Echinochloa crus-galli
Method in brief: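 Flood test on plants grown to the 2-leaf stage; treated plants kept in greenhouse twelve to sixteen days, then visually rated against controls on a 0 (no effect) to 10 (complete control) scale.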

[6] = system: tall mallow; assay: Test D tall mallow; type: in vivo, Malva sylvestris; settings: Postemergence, 0 to 100 scale
[7] = system: green foxtail; assay: Test E green foxtail; type: in vivo, Setaria viridis; settings: Preemergence
[8] = system: blackgrass; assay: Test E blackgrass; type: in vivo, Alopecurus myosuroides; settings: Preemergence
[9] = system: winter barley; assay: Test E winter barley; type: in vivo, Hordeum vulgare; settings: Preemergence
[10] = system: Italian ryegrass; assay: Test E Italian ryegrass; type: in vivo, Lolium multiflorum; settings: Preemergence
[11] = system: winter wheat; assay: Test E winter wheat; type: in vivo, Triticum aestivum; settings: Preemergence
[12] = system: winter wheat; assay: Test E winter wheat; type: in vivo, Triticum aestivum; settings: Postemergence, 0 to 100 scale, 0 is no effect, 100 is complete control
Method in brief: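 Visual evaluation versus untreated controls after about 21 to 28 days in the greenhouse. Compound was in a surfactant-containing non-phytotoxic solvent; postemergence plants were treated at the 1- to 4-leaf stage, grown in a 60:40 sandy loam and potting mix blend.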

[13] = system: wild oat; assay: Test E wild oat; type: in vivo, Avena fatua; settings: Preemergence
[14] = Postemergence, Rate 125 g/ha, scale 0 to 10, 0 is no effect, 10 is complete control
[15] = Preemergence, Rate 62 g/ha, scale 0 to 10 (0 no effect, 10 complete control)
[16] = Rate 500 g/ha, Postemergence, scale 0 to 10, 0 no effect, 10 complete control
[17] = Rate 32 g/ha; Postemergence; 0 to 100 scale, 0 no injury, 100 complete control
[18] = Rate 64 g/ha, Postemergence; 0 to 100 scale, 0 no injury, 100 complete control
[19] = Rate 125 g/ha, Postemergence; 0 to 100 scale, 0 no injury, 100 complete control
[20] = Rate 250 g/ha; Postemergence; 0 to 100 scale
[21] = Postemergence (flood test), Rate 125 g/ha, scale 0 to 10, 0 is no effect, 10 is complete control
[22] = Rate 62 g/ha, Postemergence (flood test species), scale of 0 to 10 where 0 is no effect and 10 is complete control
[23] = Rate 500 g/ha, listed under Postemergence (flood test species), scale 0 to 10, 0 no effect, 10 complete control
[24] = Rate 16 g/ha, 0 no injury, 100 complete control
[25] = Rate 32 g/ha, 0 no injury, 100 complete control
[26] = Rate 64 g/ha, 0 no injury, 100 complete control
[27] = Rate 125 g/ha, 0 no injury, 100 complete control
[28] = Rate 125 g/ha, 0 to 100 scale (0 no effect, 100 complete control)
[29] = Rate 500 g/ha, 0 to 100 scale (0 no effect, 100 complete control)
[30] = Postemergence, Rate 250 g/ha, scale 0 to 10, 0 is no effect, 10 is complete control

COCC(C)n1c(=O)on(C(=O)N(c2ccc(F)cc2F)C(C)C)c1=O (centres unmarked) [Compound 352]
8: Plant response rating, Morningglory [1, 16]
30: Tall Mallow plant response rating [6, 26] | Tall Mallow plant response rating [6, 27]
0: Plant response rating, Morningglory [1, 15] | Morningglory plant response rating (0 to 10 scale) ([1]; Preemergence, Rate 125 g/ha) | Morningglory plant response rating ([1]; Preemergence, Rate 250 g/ha) | Morningglory plant response rating ([1]; Rate 62 g/ha, Postemergence) | Plant response rating, C. ragweed ([3]; Postemergence; Rate 16 g/ha; 0 to 100 scale, 0 no injury, 100 complete control) | Plant response rating, C. ragweed [3, 17] | Plant response rating, Cocklebur [4, 14] | Plant response rating, Cocklebur [4, 15] | Cocklebur plant response rating (0 to 10 scale) ([4]; Preemergence, Rate 125 g/ha) | Cocklebur plant response rating ([4]; Preemergence, Rate 250 g/ha) | Cocklebur plant response rating ([4]; Preemergence, Rate 500 g/ha) | Cocklebur plant response rating ([4]; Rate 62 g/ha, Postemergence) | Plant response rating, Cocklebur [4, 16] | Barnyardgrass plant response rating [5, 22] | Plant response rating, Tall Mallow [6, 24] | Plant response rating, Tall Mallow [6, 25]
10: Plant response rating, Giant foxtail [2, 15] | Giant foxtail plant response rating (0 to 10 scale) ([2]; Preemergence, Rate 125 g/ha) | Giant foxtail plant response rating ([2]; Preemergence, Rate 250 g/ha) | Giant foxtail plant response rating ([2]; Preemergence, Rate 500 g/ha)
6: Plant response rating, Morningglory [1, 14]
20: Plant response rating, C. ragweed [3, 18] | Plant response rating, C. ragweed [3, 19] | Plant response rating, Tall Mallow ([6]; Rate 250 g/ha)
9: Plant response rating, Giant foxtail [2, 16]
3: Plant response rating, Barnyardgrass [5, 21] | Plant response rating, Barnyardgrass ([5]; Rate 250 g/ha, Postemergence (flood test species), scale of 0 to 10 where 0 is no effect and 10 is complete control) | Plant response rating, Barnyardgrass [5, 23]
100: Plant response rating, C. ragweed [3, 20]
2: Morningglory plant response rating ([1]; Preemergence, Rate 500 g/ha) | Plant response rating, Giant foxtail [2, 14] | Giant foxtail plant response rating ([2]; Rate 62 g/ha, Postemergence)

CCC(CC)n1c(=O)on(C(=O)N(c2ccc(F)cc2F)C(C)C)c1=O [Compound 353]
20: Plant response rating, Barley (winter) ([9]; Rate 250 g/ha, 0 to 100 scale, 0 no effect, 100 complete control) | Plant response rating, Wheat (winter) [11, 28] | Plant response rating, Wheat (winter) ([12]; Rate 125 g/ha)
9: Plant response rating, Giant foxtail [2, 15] | Barnyardgrass plant response rating ([5]; Rate 500 g/ha, Pre-emergence, flood test species, scale 0 to 10 (0 no effect, 10 complete control))
85: Plant response rating, Wild oat [13, 29]
10: Plant response rating, Morningglory [1, 16] | Giant foxtail plant response rating (0 to 10 scale) ([2]; Preemergence, Rate 125 g/ha) | Giant foxtail plant response rating ([2]; Preemergence, Rate 250 g/ha) | Giant foxtail plant response rating ([2]; Preemergence, Rate 500 g/ha) | Plant response rating, Blackgrass [8, 28] | Plant response rating, Barley (winter) [9, 28]
1: Morningglory plant response rating ([1]; Preemergence, Rate 250 g/ha) | Morningglory plant response rating ([1]; Preemergence, Rate 500 g/ha) | Plant response rating, Cocklebur [4, 16]
100: Plant response rating, Green foxtail ([7]; Rate 250 g/ha, 0 to 100 scale) | Plant response rating, Green foxtail [7, 29]
40: Plant response rating, I. Ryegrass [10, 28] | Plant response rating, Wheat (winter) ([11]; Rate 250 g/ha, 0 to 100 scale) | Plant response rating, Wheat (winter) ([12]; Rate 500 g/ha)
8: Plant response rating, Giant foxtail [2, 16]
30: Plant response rating, Barley (winter) [9, 29] | Plant response rating, Wheat (winter) ([12]; Rate 250 g/ha) | Plant response rating, Wild oat [13, 28]
3: Plant response rating, Morningglory [1, 14] | Morningglory plant response rating ([1]; Rate 62 g/ha, Postemergence) | Plant response rating, Giant foxtail [2, 14]
60: Plant response rating, Wheat (winter) [11, 29]
70: Plant response rating, Green foxtail [7, 28]
50: Plant response rating, Blackgrass ([8]; Rate 250 g/ha, 0 to 100 scale)
55: Plant response rating, Blackgrass [8, 29] | Plant response rating, Wild oat ([13]; Rate 250 g/ha, 0 to 100 scale)
90: Plant response rating, I. Ryegrass ([10]; Rate 250 g/ha, 0 to 100 scale) | Plant response rating, I. Ryegrass [10, 29]
0: Plant response rating, Morningglory [1, 15] | Morningglory plant response rating (0 to 10 scale) ([1]; Preemergence, Rate 125 g/ha) | Giant foxtail plant response rating ([2]; Rate 62 g/ha, Postemergence) | Plant response rating, Cocklebur [4, 14] | Plant response rating, Cocklebur [4, 15] | Cocklebur plant response rating (0 to 10 scale) ([4]; Preemergence, Rate 125 g/ha) | Cocklebur plant response rating ([4]; Rate 62 g/ha, Postemergence) | Plant response rating, Barnyardgrass (0 to 10 scale, 0 is no effect, 10 is complete control) ([5]; Rate 62 g/ha, flood test species, Pre-emergence, visual evaluation after twelve to sixteen days) | Barnyardgrass plant response rating ([5]; Rate 125 g/ha, Pre-emergence, flood test species, scale 0 to 10 where 0 is no effect and 10 is complete control) | Barnyardgrass plant response rating ([5]; Rate 250 g/ha, Pre-emergence, flood-test species, scale 0 to 10, 0 is no effect, 10 is complete control)

CC(C)N(C(=O)n1oc(=O)n(C2(C)CC2)c1=O)c1ccccc1 [Compound 360]
10: Morningglory plant response rating ([1]; Preemergence, Rate 500 g/ha) | Plant response rating, Giant foxtail [2, 15] | Giant foxtail plant response rating (0 to 10 scale) ([2]; Preemergence, Rate 125 g/ha) | Giant foxtail plant response rating ([2]; Preemergence, Rate 250 g/ha) | Giant foxtail plant response rating ([2]; Preemergence, Rate 500 g/ha)
40: Tall Mallow plant response rating [6, 26]
30: C. ragweed plant response rating [3, 18] | Plant response rating, C. ragweed [3, 19] | Plant response rating, C. ragweed [3, 20]
5: Morningglory plant response rating (0 to 10 scale) ([1]; Preemergence, Rate 125 g/ha) | Plant response rating, Morningglory [1, 16]
2: Plant response rating, Barnyardgrass [5, 21] | Barnyardgrass plant response rating [5, 22]
90: Plant response rating, Tall Mallow ([6]; Rate 250 g/ha)
6: Plant response rating, Barnyardgrass ([5]; flood test species, listed under Postemergence, Rate 250 g/ha, scale 0 to 10, 0 is no effect, 10 is complete control)
60: Tall Mallow plant response rating [6, 27]
7: Morningglory plant response rating ([1]; Preemergence, Rate 250 g/ha) | Plant response rating, Barnyardgrass [5, 23]
0: Plant response rating, Morningglory [1, 15] | Plant response rating, C. ragweed ([3]; Rate 16 g/ha; Postemergence; 0 to 100 scale, 0 no injury, 100 complete control) | Plant response rating, C. ragweed [3, 17] | Plant response rating, Cocklebur [4, 14] | Plant response rating, Cocklebur [4, 30] | Plant response rating, Cocklebur [4, 15] | Cocklebur plant response rating (0 to 10 scale) ([4]; Preemergence, Rate 125 g/ha) | Cocklebur plant response rating ([4]; Preemergence, Rate 500 g/ha) | Cocklebur plant response rating ([4]; Rate 62 g/ha, Postemergence) | Plant response rating, Cocklebur [4, 16] | Plant response rating, Tall Mallow [6, 24] | Plant response rating, Tall Mallow [6, 25]
4: Plant response rating, Morningglory [1, 14] | Plant response rating, Morningglory [1, 30] | Morningglory plant response rating ([1]; Rate 62 g/ha, Postemergence)
8: Plant response rating, Giant foxtail [2, 14] | Plant response rating, Giant foxtail [2, 30] | Giant foxtail plant response rating ([2]; Rate 62 g/ha, Postemergence) | Plant response rating, Giant foxtail [2, 16]

From patent US6737383B1, “Herbicidal oxadiazolidines” (priority 1999, dated 2004)
